Laboratory results published in patent US6881725B2, “Method for treating pain” (Inspire Pharmaceuticals Inc., priority 2002, dated 2005).

Experiments:
[1] = test system: mice; test: Hotplate assay for acute pain in mice; format: in vivo, mouse
Experimental: The action of P^1-5′-[2′-(O)—,3′-(O)-(benzyl)methylenedioxy]adenosine-P^4-5″-adenosine tetraphosphate, (AP4AmA; AP4A-2′, 3′-mono-acetal with phenylacetaldehyde) on mice in the hotplate model illustrates the analgesic affect of compounds of Formula I. The temperature of the hot plate was set at 55 degrees Celsius. Animals were administered subcutaneously AP4AmA or saline into the dorsal aspect of both hind paws in a volume of 20 microliters. This administration occurred 5 minutes prior to placement on the hotplate. Morphine was administered subcutaneously into the back nape of the mouse's neck in a volume of 10 mL/kg.
The time to hindpaw lick was used as the efficacy endpoint.

[2] = test system: mice; test: Acetic acid-induced abdominal constriction assay for visceral pain in mice; format: in vivo, mouse
Experimental: (§1) These examples illustrate the effects of AP4AmA in two similar models of abdominal constriction; acetic acid-induced and phenylbenzoquinone-induced constrictions in mice. The method employed in FIGS. 2A and […] was a modification of the abdominal constriction test described by Collier et. al (Collier, H, O. et. al, Br. J. Pharmacol. Chemother. 32:295-310 (1968)).
Briefly, in FIG. 2A, each animal, received an intraperitoneal (i.p.) injection of 0.9% acetic acid in a volume of 10 mL/kg. The mouse was placed in an observation chamber shortly after the acetic acid injection and allowed to explore. Testing started five minutes after the acetic acid injection and consisted of 10 minutes of observation during which the number of abdominal constrictions was counted. Abdominal constriction was defined as a lengthwise stretching of the torso with concave arching of the back. AP4AmA and vehicle were administered i.p., in a volume of 10 mL/kg, 3 minutes prior to the administration of acetic acid while Morphine was administered i.p., in a volume of 10 mL/kg, 25 minutes prior to the administration of acetic acid.

[3] = test system: mice; test: Phenylbenzoquinone-induced abdominal constriction assay for visceral pain in mice; format: in vivo, mouse
Experimental: as §1
Briefly, in FIG. 2B, each animal received an i.p. injection of 0.02% phenylbenzoquinone in a volume of 10 mL/kg. The mouse was placed in an observation chamber shortly after the acetic acid injection and allowed to explore. Testing started five minutes after the acetic acid injection and consisted of 5 minutes of observation during which the number of abdominal constrictions was counted. Abdominal constriction was defined as a lengthwise stretching of the torso with concave arching of the back. AP4AmA and vehicle were administered i.p., in a volume of 10 mL/kg, 3 minutes prior to the administration of acetic acid while morphine was administered i.p., in a volume of 10 mL/kg, 30 minutes prior to the administration of acetic acid.

[4] = test system: mice; test: Formalin assay for persistent inflammatory pain (phase II) in mice; format: in vivo, mouse; settings: 5% formalin s.c. right hindpaw; compound s.c. same paw 10 minutes after formalin; 10-30 minutes post formalin; across doses
Experimental: This example illustrates the effect of AP4AmA in mice in phase II of the formalin assay for persistent inflammatory pain. In brief, mice were injected 20 microliters of a 5% full strength formalin solution subcutaneously (s.c.) into the dorsal aspect of the right hindpaw. The mice were returned to the observation cage. The mice were injected 10 microliters s.c. into the same dorsal aspect of the right hindpaw with either vehicle or AP4AmA in varying concentrations 10 minutes after the formalin injection. […]

[5] = test system: rats; test: Spinal Nerve (L5/L6) Ligation model for neuropathic pain (tactile allodynia, von Frey) in rats; format: in vivo; settings: rat
[6] = test system: rats; settings: Jarvis and Kowaluk, 2001; cited from earlier work
[7] = mouse hotplate, highest dose of AP4AmA

| Compound | time to hindpaw lick, maximal percent effect (MPE %) ([1]; mouse hotplate 55 degrees Celsius, s.c. into both hind paws 5 minutes before, across doses) | time to hindpaw lick, maximal percent effect, compared with morphine [1, 7] | time to hindpaw lick, maximal percent effect, compared with vehicle control [1, 7] | number of abdominal constrictions ([2]; 0.9% acetic acid i.p., compound i.p. 3 minutes prior, across doses) | number of abdominal constrictions, compared with morphine ([2]; acetic acid model, 100 mg/kg AP4AmA i.p.) | number of abdominal constrictions ([3]; 0.02% phenylbenzoquinone i.p., compound i.p. 3 minutes prior, across doses) | number of abdominal constrictions, compared with morphine ([3]; phenylbenzoquinone model, 30 mg/kg AP4AmA i.p.) | duration of time spent licking the inflamed hind paw [4] | gram force required to induce withdrawal of the allodynic hindpaw, compared with morphine ([5]; von Frey filaments) | gram force required to induce withdrawal of the allodynic hindpaw, compared with vehicle control ([5]; von Frey filaments) | reversal of allodynia ([5]; 0.03 mg/mL, 50 microliters subplantar, 60 minutes prior to testing, versus morphine i.p. 16 mg/kg) | antinociceptive effects [6] |
| --- | --- | --- | --- | --- | --- | --- | --- | --- | --- | --- | --- | --- |
| Nc1ncnc2c1ncn2[C@@H]1O[C@H](COP(=O)(O)OP(=O)(O)OP(=O)(O)OP(=O)(O)OC[C@H]2O[C@@H](n3cnc4c(N)ncnc43)[C@@H]3OC(Cc4ccccc4)O[C@@H]32)[C@@H](O)[C@H]1O (stereo partly drawn) [AP4AmA, P^1-5′-[2′-(O)—,3′-(O)-(benzyl)methylenedioxy]adenosine-P^4-5″-adenosine tetraphosphate] | dose dependent pharmacological effect | statistically equivalent to morphine | statistically significant from vehicle control | dose dependent pharmacological effect | not statistically different from morphine | dose dependent pharmacological effect | not statistically different from morphine | dose dependent pharmacological effect | not statistically different from morphine | significantly different from vehicle control | can reverse the allodynia in the rat to an equivalent level as morphine | – |
| TNP-ATP | – | – | – | – | – | – | – | – | – | – | – | produce antinociceptive effects in rats |
